A short description of data set [1]: In situ single-pass rat intestinal perfusion. Type of data set: in vivo. The following applies: other: in situ single-pass intestinal perfusion; for concentration at 15 min / concentration at 30 min / concentration at 45 min / concentration at 60 min / concentration at 75 min / concentration at 90 min / concentration at 105 min / concentration at 120 min: rat, outlet intestinal perfusate, 100 μg/mL, rat intestinal perfusion. The protocol:
The in situ single-pass intestinal effective permeabilities (Peff) of PMX, PMX/DL(1:1), PMX/DL(1:2), PMX/DL(1:1)-CD, and PMX/DL(1:2)-CD were investigated in rats. The rats were fasted overnight for 12–16 h with free access to water before the experiment and then anesthetized by intramuscular injection of tiletamine·HCl–zolazepam mixture (1:1 [w/w]; 40 mg/kg). With the animal in the supine position, the abdominal cavity was opened using a midline longitudinal incision, and the intestine (duodenum, jejunum, and ileum) was exposed and subsequently intubated at the two ends with a polypropylene perfusion tube connected to a peristaltic pump (Harvard Apparatus, Holliston, MA, USA). After covering the entire excised area with a cotton pad soaked with warm normal saline, the cannulated intestinal segments were flushed with blank perfusion buffer at 37 °C for 30 min, at a constant flow rate of 0.5 mL/min, to remove residual intestinal contents. Then, drug solutions of PMX, PMX/DL(1:1), PMX/DL(1:2), PMX/DL(1:1)-CD, or PMX/DL(1:2)-CD (equivalent to 100 μg/mL PMX) were perfused through the intestinal lumen at 37 °C and a constant flow rate of 0.2 mL/min. After allowing 30 min to achieve a steady-state, outlet perfusate was collected every 15 min for 120 min. In addition, to assess the reliability of the perfusion study, 100 μg/mL fluorescein diluted in perfusion buffer was perfused separately under the same conditions and the collected samples were analyzed at excitation/emission wavelengths of 494/512 nm using a microplate reader (PerkinElmer multimode plate reader; PerkinElmer, Waltham, MA, USA) as a low-permeability marker. During the experiment, all animals were kept on heated pads under a heat lamp to maintain a normal body temperature. At the end of the experiment, the lengths and radii of the cannulated intestinal segments were measured, taking care to avoid stretching them. The collected samples were then filtered using 0.45-μm PVDF filters and stored at −20 °C before analyses. The outlet concentration of PMX in the perfusate was analyzed by HPLC as described above. In addition, the errors caused by rat intestinal water absorption and secretion during perfusion were corrected by the net water flux (ratio of the […] perfusate flows, Qout/Qin) and the corrected drug concentration in perfusate for each formulation was calculated based on the following equation (i.e. gravimetric method): Cout,corr = Cout × (Qout/Qin), where Cout,corr is the corrected outlet PMX concentration (µg/mL), Cout is the PMX outlet concentration (µg/mL), Qin (mL/min) is the flow rate entering the intestine, and Qout (mL/min) is the measured perfusate exit flow (net weight/15 min, assumed density of 1.0 g/mL) for the specified time interval. After correction, the Peff was calculated using the equation: Peff = Qin/A × ln(Cout,corr/Cin), where A is the intestinal area available for absorption (2πrl) based on its length (l) and radius (r).

A short description of data set [2]: In vitro Caco-2 cell monolayer permeability. Conditions: human, equivalent to 50 µg/mL PMX, n = 7, read-out: Apparent permeability (Papp). It counts as in vitro ADME. Here is the method:
To compare the in vitro apparent permeability (Papp) of PMX, PMX/DL(1:1), PMX/DL(1:2), PMX/DL(1:1)-CD, and PMX/DL(1:2)-CD across a Caco-2 (ATCC® HTB-37™; American Type Culture Collection, Manassas, VA, USA) cell monolayer, Caco-2 cells were seeded onto 24-well Transwell® filter inserts in Dulbecco's modified Eagle's medium (DMEM) containing 10% (v/v) fetal bovine serum and 1% penicillin/streptomycin, at a density of 1 × 10^5 cells/well, cultured for 14–16 days to form a confluent monolayer with the transepithelial electrical resistance (TEER) >350 Ω·cm^2. After the media in the apical and basolateral compartments were replaced with Hank’s balanced salt solution (HBSS) and stabilized for 20 min at 37 °C, 100 µL of the drug solution diluted with HBSS (equivalent to 50 µg/mL PMX) and 600 µL of HBSS were loaded into the apical and basolateral compartments in each well, respectively. During incubation at 37 °C, 100 µL of sample solution was withdrawn from each basolateral compartment, and the volume was replaced using fresh HBSS at 0.5, 1, 2, 3, 4, and 5 h. After passing through a polyvinylidene fluoride (PVDF) membrane filter (pore size: 0.45 µm), the concentration of PMX in each sample solution was measured using the HPLC system at 254 nm, with a Luna C18 column (4.6 × 250 mm, 5 µm, 100 Å) at 25 °C. […]

Another data set concerns LLC cell-bearing mice. Description: In vivo antitumor efficacy in LLC cell-bearing mice. On the set-up: species or system C57BL/6 mice. Here is the method: The in vivo dose-dependent antitumor effects of oral PMX/DL(1:1)-CD compared to PMX-IV were evaluated by inoculating LLC cells at a density of 1 × 10^6 cells/100 μL PBS (pH 7.4) into the right dorsal flanks of 6-week-old female C57BL/6 mice. The oral doses for PMX/DL(1:1)-CD with antitumor activities without toxic effects were determined based on our previous study (Maharjan et al., [2019]). […] The body weights and tumor volumes of all mice were measured every 3 days. Tumor volume was then calculated as a^2 × b × 0.52, where a and b were the width and length of the tumor, respectively. The mice were sacrificed and the tumor masses were measured 21 days after drug administration.

For data set [3], the system named is CT26.CL25 tumor-bearing mice. Type of data set: in vivo. The following applies: 27 days after drug treatment, IV 150 mg/kg PMX.
Protocol: To investigate the antitumor efficacy of oral PMX/DL(1:1)-CD and IV PMX given in combination with intraperitoneal aPD-1, 1 × 10^6 of CT26.CL25 cells in 100 µL of PBS (pH 7.4) were subcutaneously inoculated into each BALB/c mouse. When the average tumor volume reached 50–70 mm^3, mice were randomly divided into seven groups (10 mice per group): control (untreated), PMX-IV (150) (IV administration of 150 mg/kg PMX once every 3 weeks), aPD-1 (10) (intraperitoneal administration of 10 mg/kg aPD-1 once every 3 days), PMX-Oral (20) (once-daily oral administration equivalent to 20 mg/kg PMX), PMX/DL-CD (20) [once-daily oral administration PMX/DL(1:1)-CD equivalent to 20 mg/kg PMX], PMX-IV (150) + aPD-1 (10) (combination of IV administration of 150 mg/kg PMX once every 3 weeks, and intraperitoneal administration of 10 mg/kg aPD-1 once every 3 days), and PMX/DL-CD (20) + aPD-1 (10) (a combination of once-daily oral administration of PMX/DL(1:1)-CD equivalent to 20 mg/kg PMX and intraperitoneal administration of 10 mg/kg aPD-1 once every 3 days). During treatments, body weights and tumor volumes of mice in all seven groups were monitored once every 3 days, for 27 days. Tumor volumes in each mouse were calculated based on the following formula: 0.52 × a^2 × b, where a and b were the tumor widths and lengths, respectively.
Where [4] appears, read: read-out: Corrected outlet PMX concentration (Cout,corr).
[5] abbreviates: read-out: Outlet concentration of PMX (Cout).

Structures are written as SMILES. Like-named read-outs stand apart in the source and are kept apart here.

Turning to `Nc1nc2[nH]cc(CCc3ccc(C(=O)N[C@@H](CCC(=O)O)C(=O)O)cc3)c2c(=O)[nH]1` [PMX, Pemetrexed], the Papp at 120 min, 100 μg/mL in data set [1] (rat intestine, n = 4, read-out: Effective permeability (Peff)) is 83 ± 4.4 ×10⁻⁶ cm/s. In addition, in data set [1] (setting [4]), the concentration at 15 min came out at 93.8 ± 2.73 µg/mL, the concentration at 30 min came to 96 ± 1.36 µg/mL, the concentration at 45 min turned out to be 94.1 ± 0.46 µg/mL and the concentration at 60 min was found to be 95.4 ± 0.19 µg/mL. Further, in data set [1] (setting [4]), the concentration at 75 min was found to be 95.8 ± 0.87 µg/mL, the concentration at 90 min is 96.5 ± 0.54 µg/mL, the concentration at 105 min was determined as 95.8 ± 0.27 µg/mL and the concentration at 120 min was 96.4 ± 1.52 µg/mL. Also, in data set [1] (setting [5]), the concentration at 15 min is 93.1 ± 1.73 µg/mL, the concentration at 30 min was found to be 93.2 ± 0.04 µg/mL, the concentration at 45 min stood at 92.5 ± 0.51 µg/mL and the concentration at 60 min was 94.9 ± 0.19 µg/mL. In data set [1] (setting [5]), the concentration at 75 min was found to be 94.7 ± 1.19 µg/mL, the concentration at 90 min stood at 95.3 ± 0.87 µg/mL, the concentration at 105 min amounted to 94.7 ± 1.92 µg/mL and the concentration at 120 min was 94.7 ± 1.82 µg/mL. Also, the Papp at 5 h, 50 µg/mL in data set [2] stood at 1.2 ± 0.349 ×10⁻⁶ cm/s. Also, the “Antitumor efficacy compared to the control group” value in the data set with LLC cell-bearing mice (IV 150 mg/kg PMX once every 3 weeks) amounted to 60.9%. Moreover, the “Body weights compared to the control group” value with LLC cell-bearing mice (repeated administration for 3 weeks, all dose groups) is “did not change significantly”. In data set [3], the “Mice alive (survival)” value is on record as 50%.
